Laboratory results: patent publication US6218384A, “3-Oxo-pyrido(1,2-a)benzimidazole-4-carboxyl and 4-oxo-azepino(1,2-a)benzimidazole-5-carboxyl derivatives useful in treating central nervous system disorders” (Ortho-McNeil Pharmaceutical, Inc., priority 1997, dated 2001)
Like-named read-outs stand apart in the source and are kept apart here.

Experiments:
[1] = Suppression of anxiety (punished licking, conflict test) in the adult male rat; type: in vivo, male rats
Procedure: The anxiolytic activity of selected compounds of the invention was assessed by determining their ability to release (disinhibit) behavior that had been suppressed by punishment (Vogel, J. R. et al. Psychopharmacology 1971, 21, 1). Male rats were deprived of water for 48 hours and were deprived of food for 24 hours prior to testing. After the first 24 hours of water deprivation, they were placed in the conflict chamber for a training period; wherein, they were allowed 200 unpunished licks from a bottle containing tap water. The experiment was run the next day. At the expected time of peak activity, the animals were placed in the chamber and allowed access to tap water. […] Their first lick initiates a 3-min test session. Subsequently,every 20th lick was punished by a 0.2-s shock delivered via the stainless-steel drinking-tube. Vehicle-treated control animals generally were willing to accept a median number of 3 to 8 shocks per test session. […] The Wilcoxon rank-sum test (Mann-WhitneyU-test) was used to test for an increase (p<0.05, 1-tailed) in the median number of shocks in drug-treated groups, compared to a concurrently run vehicle-treated group. The biological assay is considered to be valid if the effects of a known anxiolytic (positive control) are detected, within the same experiment. A compound was considered active if there is a significant difference in the median number of shocks tolerated between the drug-treated group and the control group. The MED was defined as the minimum dose of the drug-treatment as analyzed using the Wilcoxon rank-sum test (SAS; Statistical Analysis System, version 5.16). If the MED value is greater than 10, an active dose of the compound being tested had not been determined.

[2] = Suppression of metrazol-induced convulsions; type: in vivo, male CD1 mice; details: mice; for ED50: Mus musculus, 0.5 h; for Metrazol (ip) ED50: 30 min
Procedure: Selected compounds of the invention were tested for their ability to reduce metrazol-induced convulsions in mice (Swinyard, E. A. J. Am. Pharm Assoc. 1949, 38, 201). Male CD1 mice, were fasted at least 16 hours, were divided into equal groups and test compounds or vehicle were administered parenterally. Water was not withheld except during the period of observations. At the time of suspected peak activity, anti-pentylenetetrazol (anti-metrazol) activity was evaluated by the subcutaneous administration of the CD90 dose of metrazol (the dose of metrazol was determined from the dose-response curve producing clonic convulsions in 90% of animals that received the corresponding vehicle for this experiment). Metrazol was dissolved in 0.9% sodium chloride solution, and its dose volume was 10 ml/kg. Animals were housed individually for observation of clonic convulsions, tonic convulsions and death for a period of 30 min. Test compounds that blocked the clonic seizure component of the convulsion in at least 50% of the animals were considered active. The biological assay was considered to be valid if the effects of a known anticonvulsant (positive control) were detected, within the same experiment. Activity was reported as percent reduction of clonic convulsions from the vehicle group. The ED50 values of active compounds were calculated by the method of probits (Finney, D. J. 1971. Probit Analysis. London: Cambridge University Press) and are listed in Tables 1 to 5.

[3] = biological target: benzodiazepine site of the GABA-A receptor; test: Benzodiazepine Receptor Binding Assay (inhibition of 3H-flunitrazepam binding); details: ca. 3 nM 3H-flunitrazepam
[4] = Table 1, ip, minimum effective dose, >10 = active dose not determined, read-out: Conflict (ip) MED
[5] = Table 1, ip, clonic convulsions after sc CD90 metrazol, >30 = active dose not determined, read-out: Metrazol (ip) ED50
[6] = Table 1, 25° C., 10-20 min, >10,000 = not active
[7] = Table 3, minimum effective dose, read-out: Conflict MED
[8] = Table 3, parenteral, clonic convulsions, read-out: Antimetrazol ED50
[9] = Table 1, ip, minimum effective dose, >10 = active dose not determined
[10] = Table 1, ip, clonic convulsions after sc CD90 metrazol, >30 = active dose not determined
[11] = Table 5, minimum effective dose, read-out: Conflict MED
[12] = Table 5, parenteral, clonic convulsions, read-out: Antimetrazol ED50
[13] = Table 4, minimum effective dose, read-out: Conflict MED
[14] = Table 4, parenteral, clonic convulsions, read-out: Antimetrazol ED50
[15] = Table 2, ip, minimum effective dose, read-out: Conflict (ip) MED
[16] = Table 2, ip, clonic convulsions, read-out: Antimetrazol (ip) ED50

Row | Compound | minimal effective dose [1, 4] [mg/kg] | ED50 [2, 5] [mg/kg] | IC50 [3, 6] [nM] | further results
1 | O=C1CCN2C(=C1C(=O)Nc1ccccc1)Nc1ccc(Cl)cc12 [compound 84] | > 10 | > 10 | 170 | –
2 | CN1C2=C(C(=O)Nc3ccncc3)C(=O)CCN2c2ccccc21 [compound 126] | – | – | – | minimal effective dose [1, 7]: < 10 mg/kg; ED50 [2, 8]: 3 mg/kg; IC50 ([3]; Table 3): 230 nM
3 | O=C1CCN2C(=C1C(=O)Nc1nccnn1)Nc1ccccc12 [compound 49] | > 10 | 10 | 54 | –
4 | N-(2,4-Difluorophenyl)-4-oxo-1,2,3,4-tetrahydro-6H-azepino(1,2-a)benzimidazol-5-carboxamide [CP 155] | – | – | 210 | Conflict (ip) MED [1, 9]: > 10 mg/kg; Metrazol (ip) ED50 [2, 10]: 10 to 30 mg/kg
5 | COc1ccc(NC(=O)C2=C3Nc4ccccc4N3CCC2=O)cc1OC [compound 8] | > 10 | > 30 | 32 | –
6 | Cc1cc(NC(=O)C2=C3Nc4ccccc4N3CCC2=O)ccn1 [compound 100] | > 10 | > 10 | 820 | –
7 | O=C1CCCN2C(=C1C(=O)Nc1ccccc1)N(Cc1ccccc1)c1ccccc12 [compound 145] | – | – | – | minimal effective dose [1, 11]: > 10 mg/kg; ED50 [2, 12]: > 10 mg/kg; IC50 ([3]; Table 5): 420 nM
8 | CN(C)c1ccc(NC(=O)C2=C3N(C)c4ccccc4N3CCCC2=O)cc1 [compound 150] | – | – | – | minimal effective dose [1, 11]: > 10 mg/kg; ED50 [2, 12]: > 10 mg/kg; IC50 ([3]; Table 5): 3100 nM
9 | O=C(Nc1ccccc1)c1c(=O)ccn2c1[nH]c1ccccc12 [compound 138] | – | – | – | minimal effective dose [1, 13]: 1 to 10 mg/kg; ED50 [2, 14]: 0.5 mg/kg; IC50 ([3]; Table 4): 24 nM
10 | COc1cccc(NC(=O)C2=C3Nc4ccccc4N3CCC2=O)c1 [compound 21] | 5 | 0.3 | 26 | –
11 | CCCCNC(=O)C1=C2Nc3ccccc3N2CCC1=O [compound 38] | > 10 | > 10 | 54 | –
12 | O=C1CCN2C(=C1C(=O)Nc1nnc(C(F)(F)F)s1)Nc1ccccc12 [compound 74] | > 10 | 10 | 10000 | –
13 | O=C1CCN2C(=C1C(=O)NCc1cccnc1)Nc1ccccc12 [compound 62] | > 10 | > 10 | 155 | –
14 | O=C1CCN2C(=C1C(=O)Nc1ccc3c(c1)CCN3)Nc1ccccc12 [compound 33] | 10 | > 30 | 54 | –
15 | O=C1CCN2C(=C1C(=O)Nc1cccc3cnccc13)Nc1ccccc12 [compound 65] | > 10 | 10 | 770 | –
16 | CN1C2=C(C(=O)Nc3ccncc3)C(=O)CCCN2c2ccccc21 [compound 153] | – | – | – | minimal effective dose [1, 11]: > 10 mg/kg; ED50 [2, 12]: > 10 mg/kg; IC50 ([3]; Table 5): 2600 nM
17 | O=C1CCN2C(=C1C(=O)Nc1ccccc1Cl)Nc1ccccc12 [compound 25] | 10 | 1 | 12 | –
18 | CCCN1C2=C(C(=O)Nc3ccc(F)cc3F)C(=O)CCN2c2ccccc21 [compound 131] | – | – | – | minimal effective dose [1, 7]: < 1 mg/kg; ED50 [2, 8]: 0.3 mg/kg; IC50 ([3]; Table 3): 2.6 nM
19 | Cc1cccc2c1NC1=C(C(=O)Nc3ccncc3)C(=O)CCN12 [compound 88] | > 10 | 10 | 390 | –
20 | CN(C)c1ccc(NC(=O)C2=C3Nc4cc(Cl)ccc4N3CCC2=O)cc1 [compound 80] | > 10 | 10 | 220 | –
21 | O=C1CCN2C(=C1C(=O)Nc1cccc(C(F)(F)F)c1)Nc1ccccc12 [compound 15] | > 10 | > 10 | 300 | –
22 | O=C1CCN2C(=C1C(=O)Nc1ccncc1)Nc1cc(F)ccc12 [compound 106] | 3 | 3 | 42 | –

Row | Compound | minimal effective dose [1, 4] [mg/kg] | ED50 [2, 5] [mg/kg] | IC50 [3, 6] [nM] | further results
23 | N#Cc1ccc(NC(=O)C2=C3Nc4ccccc4N3CCC2=O)cc1 [compound 54] | < 10 | > 10 | 13000 | –
24 | O=C1CCN2C(=C1C(=O)Nc1ccc3[nH]ncc3c1)Nc1ccccc12 [compound 50] | 10 | > 10 | 96 | –
25 | O=C1CCN2C(=C1C(=O)Nc1ccnc(Cl)c1)Nc1ccccc12 [compound 52] | > 10 | > 10 | 1400 | –
26 | O=C(Nc1c(F)cccc1F)c1c(=O)ccn2c1[nH]c1ccccc12 [compound 141] | – | – | – | minimal effective dose [1, 13]: 0.3 mg/kg; ED50 [2, 14]: < 0.1 mg/kg; IC50 ([3]; Table 4): < 1 nM
27 | Nc1ccccc1NC(=O)C1=C2Nc3ccccc3N2CCC1=O [compound 47] | 10 | 3 | 50 | –
28 | CSc1ccccc1NC(=O)C1=C2Nc3ccccc3N2CCC1=O [compound 40] | > 10 | > 10 | 720 | –
29 | Cc1cccc2c1NC1=C(C(=O)Nc3ccccc3)C(=O)CCN12 [compound 89] | > 10 | 1 | 10 | –
30 | O=C1CCN2C(=C1C(=O)Nc1ncc(C(F)(F)F)cc1C(F)(F)F)Nc1ccccc12 [compound 78] | 10 | > 10 | > 10000 | –
31 | O=C1CCN2C(=C1C(=O)Sc1ccccc1)Nc1ccccc12 [compound 119] | – | – | – | minimal effective dose [1, 15]: > 10 mg/kg; ED50 [2, 16]: > 30 mg/kg; IC50 ([3]; Table 2): 29 nM
32 | CC(C)NC(=O)C1=C2Nc3ccccc3N2CCC1=O [compound 105] | > 10 | > 10 | 46 | –
33 | CN(C)CCc1ccc(NC(=O)C2=C3Nc4ccccc4N3CCC2=O)cc1 [compound 115] | 30 | > 30 | 110 | –
34 | O=C1CCN2C(=C1C(=O)Nc1c(F)cc(F)cc1F)Nc1cc(F)ccc12 [compound 107] | 0.3 | 1 | 3 | –
35 | O=C1CCN2C(=C1C(=O)Nc1ccncn1)Nc1ccccc12 [compound 39] | 10 | > 10 | 480 | –
36 | O=C1CCN2C(=C1C(=O)Nc1ccccn1)Nc1ccccc12 [compound 22] | 10 | 10 | 59 | –
37 | O=C1CCN2C(=C1C(=S)Nc1ccccc1)Nc1ccccc12 [compound 117] | – | – | – | minimal effective dose [1, 15]: > 10 mg/kg; ED50 [2, 16]: > 10 mg/kg; IC50 ([3]; Table 2): 360 nM
38 | N-(4-Pyridyl)-1,2-dihydro-3-hydroxypyrido-(1,2-a)benzimidazole-4-carboxamide [CP 35] | – | – | 9.1 | Conflict (ip) MED [1, 9]: 10 mg/kg; Metrazol (ip) ED50 [2, 10]: 3 mg/kg
39 | CCCN1C2=C(C(=O)Nc3c(F)cc(F)cc3F)C(=O)CCN2c2ccccc21 [compound 137] | – | – | – | minimal effective dose [1, 7]: > 10 mg/kg; ED50 [2, 8]: 1 mg/kg; IC50 ([3]; Table 3): < 100 nM
40 | O=C1CCCN2C(=C1C(=O)Nc1ccc(F)cc1F)Nc1ccccc12 [compound 155] | – | – | – | minimal effective dose [1, 11]: > 10 mg/kg; ED50 [2, 12]: 10 mg/kg; IC50 ([3]; Table 5): 39 nM
41 | O=C1CCN2C(=C1C(=O)Nc1ncccn1)Nc1ccccc12 [compound 46] | 10 | 3 | 54 | –
42 | CCCN1C2=C(C(=O)Nc3ccccc3F)C(=O)CCN2c2ccccc21 [compound 130] | – | – | – | minimal effective dose [1, 7]: < 0.3 mg/kg; ED50 [2, 8]: 0.1 mg/kg; IC50 ([3]; Table 3): < 1 nM
43 | COc1ccc2c(c1)NC1=C(C(=O)NC3CCCCC3)C(=O)CCN12 [compound 37] | 10 | 10 | 800 | –
